Assay results reported in ChEMBL document CHEMBL3745652, “Synthesis and evaluation of pretomanid (PA-824) oxazolidinone hybrids” (Bioorg Med Chem Lett, 2016).
Values after ≈ are worked out from the molar mass of the structure shown. Active and inactive are the calls of the source. No cut-off for these calls is given here.

Columns and labels:
Vero = assay: Cytotoxicity against African green monkey Vero cells by cell titer glo assay; format: cell-based; conditions: Chlorocebus sabaeus
[1] = Half life in mouse liver microsomes; format: ADME; conditions: microsomes
[2] = Apparent permeability from apical to basolateral side in human Caco2 cells; format: ADME, cell-based; conditions: caco-2
[3] = Apparent permeability from basolateral to apical side in human Caco2 cells; format: ADME, cell-based; conditions: caco-2
[4] = Plasma protein binding in human; format: ADME, cell-free
Mus musculus = assay: Toxicity in C57BL/6 mouse at 300 mg/kg, po after 3 days; format: organism-based; conditions: in vivo, 72 h
[5] = system: Mycobacterium tuberculosis; assay: Antimicrobial activity against Mycobacterium tuberculosis H37Rv infected in C57BL/6 mouse assessed as reduction in bacterial load at 100 mg/kg, po after 28 days; format: functional, organism-based
[6] = AUC(infinity) in C57BL/6 mouse at 10 mg/kg, iv; format: ADME, organism-based; parameters: dose 10 mg/kg, time infinity, route intravenous; conditions: in vivo
[7] = Half life in C57BL/6 mouse at 10 mg/kg, iv; format: ADME, organism-based; conditions: in vivo
[8] = Clearance in C57BL/6 mouse at 10 mg/kg, iv; format: ADME, organism-based; conditions: in vivo
[9] = Volume of distribution at steady state in C57BL/6 mouse at 10 mg/kg, iv; format: ADME, organism-based; conditions: in vivo, read-out: Vdss
Bacillus anthracis = assay: Antimicrobial activity against Bacillus anthracis; format: functional, organism-based
Bacillus subtilis = assay: Antimicrobial activity against Bacillus subtilis; format: functional, organism-based
Enterococcus faecalis = assay: Antimicrobial activity against Enterococcus faecalis; format: functional, organism-based
Staphylococcus aureus = assay: Antimicrobial activity against Staphylococcus aureus; format: functional, organism-based
Streptococcus pyogenes = assay: Antimicrobial activity against Streptococcus pyogenes; format: functional, organism-based
Streptococcus pneumoniae = assay: Antimicrobial activity against Streptococcus pneumoniae; format: functional, organism-based
Acinetobacter baumannii = assay: Antimicrobial activity against Acinetobacter baumannii; format: functional, organism-based
Escherichia coli = assay: Antimicrobial activity against Escherichia coli; format: functional, organism-based
Klebsiella pneumoniae = assay: Antimicrobial activity against Klebsiella pneumoniae; format: functional, organism-based
[10] = system: Mycobacterium tuberculosis; assay: Antimicrobial activity against Mycobacterium tuberculosis H37Rv assessed as growth inhibition after 7 days by microbroth dilution method; format: functional; conditions: 168 h

O=C1COCCN1c1ccc(CO[C@@H]2COc3nc([N+](=O)[O-])cn3C2)cc1
IC50 (Vero): > 100 µg/mL | t1/2 [1]: 1100 min | Papp [2]: 40.08 ×10⁻⁶ cm/s | Papp [3]: 30.56 ×10⁻⁶ cm/s | PPB [4]: 50.4% | Activity (Mus musculus): Non-toxic | Activity [5]: inactive | AUC(0-inf) [6]: 7410 ng·h/mL | half-life [7]: 28.8 min | clearance [8]: 22.5 mL/min/kg | Vd [9]: 0.79 L/kg | Activity (Bacillus anthracis): inactive | Activity (Bacillus subtilis): inactive | Activity (Enterococcus faecalis): inactive | Activity (Staphylococcus aureus): inactive | Activity (Streptococcus pyogenes): inactive | Activity (Streptococcus pneumoniae): inactive | Activity (Acinetobacter baumannii): inactive | Activity (Escherichia coli): inactive | Activity (Klebsiella pneumoniae): inactive | MIC [10]: 0.78 µg/mL (≈ 2.08 µM)

O=C1COCCN1c1ccc(CO[C@@H]2COc3nc([N+](=O)[O-])cn3C2)cc1F
IC50 (Vero): > 100 µg/mL | t1/2 [1]: 792 min | Papp [2]: 50.57 ×10⁻⁶ cm/s | Papp [3]: 31.67 ×10⁻⁶ cm/s | PPB [4]: 67.8% | Activity (Mus musculus): Non-toxic | Activity [5]: inactive | AUC(0-inf) [6]: 5180 ng·h/mL | half-life [7]: 16.8 min | clearance [8]: 32.3 mL/min/kg | Vd [9]: 0.63 L/kg | Activity (Bacillus anthracis): inactive | Activity (Bacillus subtilis): inactive | Activity (Enterococcus faecalis): inactive | Activity (Staphylococcus aureus): inactive | Activity (Streptococcus pyogenes): inactive | Activity (Streptococcus pneumoniae): inactive | Activity (Acinetobacter baumannii): inactive | Activity (Escherichia coli): inactive | Activity (Klebsiella pneumoniae): inactive | MIC [10]: 0.78 µg/mL (≈ 1.99 µM)

O=[N+]([O-])c1cn2c(n1)OC[C@@H](OCc1ccc(N3CCCCC3)cc1)C2
IC50 (Vero): 11.6 µg/mL (≈ 32.4 µM) | t1/2 [1]: 29.4 min | Papp [2]: 31.76 ×10⁻⁶ cm/s | Papp [3]: 26.33 ×10⁻⁶ cm/s | PPB [4]: 83% | Activity (Bacillus anthracis): inactive | Activity (Bacillus subtilis): inactive | Activity (Enterococcus faecalis): inactive | Activity (Staphylococcus aureus): inactive | Activity (Streptococcus pyogenes): inactive | Activity (Streptococcus pneumoniae): inactive | Activity (Acinetobacter baumannii): inactive | Activity (Escherichia coli): inactive | Activity (Klebsiella pneumoniae): inactive | MIC [10]: 0.39 µg/mL (≈ 1.09 µM)

O=[N+]([O-])c1cn2c(n1)OC[C@@H](OCc1ccc(N3CCOCC3)c(F)c1)C2
IC50 (Vero): 23.1 µg/mL (≈ 61.1 µM) | t1/2 [1]: 462 min | Papp [2]: 43.33 ×10⁻⁶ cm/s | Papp [3]: 33.28 ×10⁻⁶ cm/s | PPB [4]: 51.3% | Activity (Mus musculus): Non-toxic | Activity [5]: inactive | AUC(0-inf) [6]: 10100 ng·h/mL | half-life [7]: 58.8 min | clearance [8]: 16.5 mL/min/kg | Vd [9]: 1.16 L/kg | Activity (Bacillus anthracis): inactive | Activity (Bacillus subtilis): inactive | Activity (Enterococcus faecalis): inactive | Activity (Staphylococcus aureus): inactive | Activity (Streptococcus pyogenes): inactive | Activity (Streptococcus pneumoniae): inactive | Activity (Acinetobacter baumannii): inactive | Activity (Escherichia coli): inactive | Activity (Klebsiella pneumoniae): inactive

O=[N+]([O-])c1cn2c(n1)OC[C@@H](OCc1ccc(N3CCOCC3)cc1)C2
IC50 (Vero): 42.3 µg/mL (≈ 117 µM) | t1/2 [1]: 498 min | Papp [2]: 41.49 ×10⁻⁶ cm/s | Papp [3]: 32.25 ×10⁻⁶ cm/s | PPB [4]: 39.4% | Activity (Bacillus anthracis): inactive | Activity (Bacillus subtilis): inactive | Activity (Enterococcus faecalis): inactive | Activity (Staphylococcus aureus): inactive | Activity (Streptococcus pyogenes): inactive | Activity (Streptococcus pneumoniae): inactive | Activity (Acinetobacter baumannii): inactive | Activity (Escherichia coli): inactive | Activity (Klebsiella pneumoniae): inactive | MIC [10]: 3.13 µg/mL (≈ 8.69 µM)
